The values below come from patent US20220089636A1, “TETRAZOLONE SUBSTITUTED STEROIDS AND USE THEREOF” (Beijing Xuanyi PharmaSciences Co., Ltd., priority 2019, published 2022).

One data set deals with T1, α1β2γ2 GABAA receptor (Homo sapiens, UniProt P14867+P47870).
T1 construct: expressed in transfected cells
Put plainly: Patch clamp electrophysiology assay of recombinant α1β2γ2 GABAA receptors (potentiation of 2 μM GABA-evoked Cl- current). The following applies: HEK293T cells stably transfected with α1β2γ2 GABAA; for EC50: whole cell, 2 μM GABA, -80 mV; for Emax: HEK-293T, potentiation of 2 μM GABA current. The data set is classed as cell-based. How it is done:
Cellular electrophysiology is used to measure the pharmacological properties of GABAA receptor modulators in heterologous cell systems. Each compound is tested for its ability to affect GABA mediated currents at a submaximal agonist dose (GABA EC20=2 μM). HEK293T cells are stably transfected with the α1β2γ2 subunits of the GABAA receptor. Flasks or dishes of HEK293 GABAA cells were maintained in the medium (DMEM, 11% (v/v) heat inactivated FBS, 100 or 200 μg/ml G418, 40 μg/ml Hygromycin B, 80 μg/ml Zeocin) and incubated at 37° C. in a humidified incubator with 5% CO2. 12 to 24 hours prior to electrophysiological recordings, the cells were plated on glass cover slips placed in culture dishes and maintained under the same incubation and media conditions. The number of cells being plated on the cover slip should reach a confluence rate at which majority of the cells are single.
For the electrophysiological recordings in the study the following external and internal solutions were used (Table 1):
HEKA EPC 10 USB patch clamp amplifier (from HEKA Elektronik, Germany) was used in the whole cell recording. A cover slip with plenty of single HEK293T-GABAA cells on the surface was removed and placed into a continuously perfused (approximately 1-2 ml/minute) recording chamber mounted on an inverted microscope. GABAA Cl^− current was recorded from single cell using standard whole cell recording techniques. 2 μM GABA was used to evoke GABAA Cl^− current (2 μM of GABA was the EC10-EC20 value of agonist GABA obtained internally on the stable GABAA cells used in this study). After achieving break-in (whole-cell) configuration, the cell was voltage clamped at a holding potential of −80 mV. Only stable cells meeting the recording parameters (membrane resistance Rm>500 MΩ, access resistance (Ra)<15 MΩ, leak current<100 pA in 90% of the recording time) were used. 2 μM GABA was applied to the cell to induce stable Cl^− current first as control for about 2 seconds, test compounds (i.e., compounds of formula (AI), (I), (AII), and (II), or any subgenera thereof) were followed to be applied to the cells for 3 min, then 2 μM GABA was applied to observe the potentiation effect on the GABAA Cl^− current. Different doses of test compound from low to high were applied to the same cell when the cell was stable. A cell was considered stable when current size evoked by 2 μM GABA applied to the cell from time to time was similar. To minimize the possible desensitation of GABAA Cl^− current, duration between applications of test articles was set to 180 seconds.
Test compounds were dissolved in DMSO to form stock solutions (10 mM). Test compounds were diluted to 0.003, 0.01, 0.03, 0.1, 0.3, 1, 3 and 10 μM in bath solution. AU concentrations of test articles were tested on each cell. Data were analyzed using software provided by HEKA, Microsoft Excel and Graphpad Prism (Table 2).

Data set [1] is described as follows: Mouse PK study (i.v. and p.o.). Type of data set: in vivo. The following applies: plasma, male CD1 mice; for half-life: read-out: T1/2 (hr) i.v. (converted); for Vd: read-out: Vss; for bioavailability: 5 mg/kg p.o. vs 1 mg/kg i.v. The procedure:
Test compounds were dosed to male CD1 mice at 5 mg/kg by oral gavage (p.o.) or 1 mg/kg by intravenous injection (i.v.). Blood samples were taken at 0.083, 0.25, 0.5, 1.0, 3.0, 6.0 and 24 hours post i.v. dosing and at 0.25, 0.5, 1.0, 3.0, 6.0 and 24 hours post p.o. dosing. The plasma concentration of compounds were determined by HPLC.

The mark [2] stands for this setting: iv, 1 mg/kg i.v., read-out: AUClast (hr*ng/mL) i.v.
[3] abbreviates: po, 5 mg/kg p.o., read-out: AUClast (hr*ng/mL) p.o.

Molecules are shown by their SMILES. Like-named read-outs stand apart in the source and are kept apart here.

T1 sequence (P14867 28-456): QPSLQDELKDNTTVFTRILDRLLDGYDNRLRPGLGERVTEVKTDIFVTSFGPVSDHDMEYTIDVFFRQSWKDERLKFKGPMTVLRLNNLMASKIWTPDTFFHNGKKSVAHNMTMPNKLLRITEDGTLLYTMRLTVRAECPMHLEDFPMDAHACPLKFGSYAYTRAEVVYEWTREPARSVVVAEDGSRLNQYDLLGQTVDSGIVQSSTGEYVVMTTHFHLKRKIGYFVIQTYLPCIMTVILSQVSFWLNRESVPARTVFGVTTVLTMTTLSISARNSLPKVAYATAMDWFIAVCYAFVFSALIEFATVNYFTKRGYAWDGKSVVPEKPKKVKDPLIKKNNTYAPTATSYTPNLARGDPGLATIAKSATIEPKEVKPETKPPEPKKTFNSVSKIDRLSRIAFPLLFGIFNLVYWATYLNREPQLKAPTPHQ
T1 sequence (P47870 25-512 limits assumed): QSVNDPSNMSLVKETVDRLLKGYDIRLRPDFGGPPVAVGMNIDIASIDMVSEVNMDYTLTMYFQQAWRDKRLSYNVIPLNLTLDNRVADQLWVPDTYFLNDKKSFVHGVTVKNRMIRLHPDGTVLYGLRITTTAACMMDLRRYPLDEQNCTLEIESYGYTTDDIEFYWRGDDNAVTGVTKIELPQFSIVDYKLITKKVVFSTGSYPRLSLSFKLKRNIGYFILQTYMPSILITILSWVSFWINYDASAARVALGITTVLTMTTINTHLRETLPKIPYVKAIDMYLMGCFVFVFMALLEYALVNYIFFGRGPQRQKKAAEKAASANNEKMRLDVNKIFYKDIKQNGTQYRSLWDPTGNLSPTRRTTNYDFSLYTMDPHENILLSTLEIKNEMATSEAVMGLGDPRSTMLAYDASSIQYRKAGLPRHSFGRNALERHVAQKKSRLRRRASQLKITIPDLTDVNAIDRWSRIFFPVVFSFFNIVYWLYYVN
T1 sequence (P18507 40-475 partner): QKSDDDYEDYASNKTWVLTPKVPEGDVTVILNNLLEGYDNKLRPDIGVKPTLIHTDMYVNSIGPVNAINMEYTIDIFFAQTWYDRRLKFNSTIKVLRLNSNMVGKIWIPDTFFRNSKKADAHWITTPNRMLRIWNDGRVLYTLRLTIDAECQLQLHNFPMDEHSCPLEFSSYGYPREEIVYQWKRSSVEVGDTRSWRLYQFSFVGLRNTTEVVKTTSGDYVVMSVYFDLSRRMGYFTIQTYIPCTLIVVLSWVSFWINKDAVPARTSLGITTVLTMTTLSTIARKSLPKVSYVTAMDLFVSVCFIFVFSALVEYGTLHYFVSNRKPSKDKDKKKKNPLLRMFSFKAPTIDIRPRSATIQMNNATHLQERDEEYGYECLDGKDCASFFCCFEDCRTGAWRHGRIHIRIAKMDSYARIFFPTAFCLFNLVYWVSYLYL

In the case of `C[C@@]1(O)CC[C@H]2[C@H](CC[C@@H]3[C@@H]2CC[C@]2(C)[C@@H](C(=O)Cn4nnn(-c5ccn[nH]5)c4=O)CC[C@@H]32)C1` [Example 25, 1-(2-((3R,5R,8R,9R,10S,13S,14S,17S)-3-hydroxy-3,13-dimethylhexadecahydro-1H-cyclopenta[a]phenanthren-17-yl)-2-oxoethyl)-4-(1H-pyrazol-5-yl)-1,4-dihydro-5H-tetrazol-5-one], the EC50 at α1β2γ2 GABAA receptor is 130 nM. Also, in data set [1] (iv, 1 mg/kg i.v.), the clearance is 6.5 mL/min/kg, the half-life was 4.63 h and the Vd was 1.88 L/kg. For the same compound, the AUC(0-t) in data set [1] (setting [2]) was found to be 2480 ng·h/mL. In addition, in data set [1] (po, 5 mg/kg p.o.), the Cmax is 1190 ng/mL and the Tmax came out at 180 min. Further, the bioavailability in data set [1] (po) was found to be 106%. In data set [1] (setting [3]), the AUC(0-t) came out at 12800 ng·h/mL.
As for `C[C@@]1(O)CC[C@H]2[C@H](CC[C@@H]3[C@@H]2CC[C@]2(C)[C@@H](C(=O)Cn4nnn(-c5cccc(C#N)c5)c4=O)CC[C@@H]32)C1` [Example 14, 3-(4-(2-((3R,5R,8R,9R,10S,13S,14S,17S)-3-hydroxy-3,13-dimethylhexadecahydro-1H-cyclopenta[a]phenanthren-17-yl)-2-oxoethyl)-5-oxo-4,5-dihydro-1H-tetrazol-1-yl)benzonitrile], on α1β2γ2 GABAA receptor, the EC50 is 7 nM and the Emax is 974%. In data set [1] (iv, 1 mg/kg i.v.), the clearance is 20.5 mL/min/kg, the half-life was 1.44 h and the Vd was 1.92 L/kg. Besides, the AUC(0-t) in data set [1] (setting [2]) is 771 ng·h/mL. For the same compound, in data set [1] (po, 5 mg/kg p.o.), the Cmax is 250 ng/mL and the Tmax is 60 min. Further, the bioavailability in data set [1] (po) was 28.9%. In data set [1] (setting [3]), the AUC(0-t) came out at 1120 ng·h/mL.
Regarding `C[C@@]1(O)CC[C@H]2[C@H](CC[C@@H]3[C@@H]2CC[C@]2(C)[C@@H](C(=O)Cn4nnn(-c5cocn5)c4=O)CC[C@@H]32)C1` [Example 24, 1-(2-((3R,5R,8R,9R,10S,13S,14S,17S)-3-hydroxy-3,13-dimethylhexadecahydro-1H-cyclopenta[a]phenanthren-17-yl)-2-oxoethyl)-4-(oxazol-4-yl)-1,4-dihydro-5H-tetrazol-5-one], at α1β2γ2 GABAA receptor, the EC50 worked out at 64 nM and the Emax was determined as 698%. Also, in data set [1] (iv, 1 mg/kg i.v.), the clearance is 15.5 mL/min/kg, the half-life is 1.57 h and the Vd came out at 1.87 L/kg. For the same compound, the AUC(0-t) in data set [1] (setting [2]) was 998 ng·h/mL. For the same compound, in data set [1] (po, 5 mg/kg p.o.), the Cmax stood at 775 ng/mL and the Tmax stood at 180 min. For the same compound, the bioavailability in data set [1] (po) was 172%. Moreover, the AUC(0-t) in data set [1] (setting [3]) came out at 9180 ng·h/mL.
`CC(C)(C)n1nnn(CC(=O)[C@H]2CC[C@H]3[C@@H]4CC[C@@H]5C[C@](C)(O)CC[C@@H]5[C@H]4CC[C@]23C)c1=O` [Example 5, 1-(tert-butyl)-4-(2-((3R,5R,8R,9R,10S,13S,14S,17S)-3-hydroxy-3,13-dimethylhexadecahydro-1H-cyclopenta[a]phenanthren-17-yl)-2-oxoethyl)-1,4-dihydro-5H-tetrazol-5-one]: the EC50 on α1β2γ2 GABAA receptor worked out at 150 nM. Besides, in data set [1] (iv, 1 mg/kg i.v.), the clearance was 24.5 mL/min/kg, the half-life is 7.83 h and the Vd is 8.3 L/kg. Moreover, the AUC(0-t) in data set [1] (setting [2]) is 634 ng·h/mL. In addition, in data set [1] (po, 5 mg/kg p.o.), the Cmax was 276 ng/mL and the Tmax is 30 min. For the same compound, the bioavailability in data set [1] (po) turned out to be 20.5%. Further, the AUC(0-t) in data set [1] (setting [3]) amounted to 633 ng·h/mL.
For `CCn1nnn(CC(=O)[C@H]2CC[C@H]3[C@@H]4CC[C@@H]5C[C@](C)(O)CC[C@@H]5[C@H]4CC[C@]23C)c1=O` [Example 3, 1-ethyl-4-(2-((3R,5R,8R,9R,10S,13S,14S,17S)-3-hydroxy-3,13-dimethylhexadecahydro-1H-cyclopenta[a]phenanthren-17-yl)-2-oxoethyl)-1,4-dihydro-5H-tetrazol-5-one], the EC50 on α1β2γ2 GABAA receptor came out at 94 nM. Besides, in data set [1] (iv, 1 mg/kg i.v.), the clearance was 24.3 mL/min/kg, the half-life was 0.57 h and the Vd is 0.93 L/kg. The AUC(0-t) in data set [1] (setting [2]) was 673 ng·h/mL. Further, in data set [1] (po, 5 mg/kg p.o.), the Cmax was found to be 973 ng/mL and the Tmax is 30 min. In data set [1] (po), the bioavailability stood at 40.5%. For the same compound, the AUC(0-t) in data set [1] (setting [3]) was 1330 ng·h/mL.
In the case of `C[C@@]1(O)CC[C@H]2[C@H](CC[C@@H]3[C@@H]2CC[C@]2(C)[C@@H](C(=O)Cn4nnn(C5CCCC5)c4=O)CC[C@@H]32)C1` [Example 8, 1-cyclopentyl-4-(2-((3R,5R,8R,9R,10S,13S,14S,17S)-3-hydroxy-3,13-dimethylhexadecahydro-1H-cyclopenta[a]phenanthren-17-yl)-2-oxoethyl)-1,4-dihydro-5H-tetrazol-5-one], on α1β2γ2 GABAA receptor, the EC50 came out at 95 nM. In data set [1] (iv, 1 mg/kg i.v.), the clearance is 140 mL/min/kg, the half-life was 0.73 h and the Vd was found to be 2.38 L/kg. For the same compound, in data set [1] (setting [2]), the AUC(0-t) came to 117 ng·h/mL. In addition, in data set [1] (po, 5 mg/kg p.o.), the Cmax amounted to 22 ng/mL and the Tmax came to 39.6 min. For the same compound, in data set [1] (po), the bioavailability stood at 4.48%. Moreover, the AUC(0-t) in data set [1] (setting [3]) turned out to be 26 ng·h/mL.
Regarding `C[C@@]1(O)CC[C@H]2[C@H](CC[C@@H]3[C@@H]2CC[C@]2(C)[C@@H](C(=O)Cn4nnn(-c5cccnc5)c4=O)CC[C@@H]32)C1` [Example 18, 1-(2-((3R,5R,8R,9R,10S,13S,14S,17S)-3-hydroxy-3,13-dimethylhexadecahydro-1H-cyclopenta[a]phenanthren-17-yl)-2-oxoethyl)-4-(pyridin-3-yl)-1,4-dihydro-5H-tetrazol-5-one], at α1β2γ2 GABAA receptor, the EC50 worked out at 39 nM and the Emax turned out to be 757%. Also, in data set [1] (iv, 1 mg/kg i.v.), the clearance is 56.5 mL/min/kg, the half-life was 0.29 h and the Vd is 1.33 L/kg. Also, the AUC(0-t) in data set [1] (setting [2]) amounted to 270 ng·h/mL. For the same compound, in data set [1] (po, 5 mg/kg p.o.), the Cmax was 297 ng/mL and the Tmax was determined as 60 min. Besides, the bioavailability in data set [1] (po) was 50.1%. For the same compound, the AUC(0-t) in data set [1] (setting [3]) is 692 ng·h/mL.
Turning to `C[C@@]1(O)CC[C@H]2[C@H](CC[C@@H]3[C@@H]2CC[C@]2(C)[C@@H](C(=O)Cn4nnn(C(F)(F)F)c4=O)CC[C@@H]32)C1` [Example 22, 1-(2-((3R,5R,8R,9R,10S,13S,14S,17S)-3-hydroxy-3,13-dimethylhexadecahydro-1H-cyclopenta[a]phenanthren-17-yl)-2-oxoethyl)-4-(trifluoromethyl)-1,4-dihydro-5H-tetrazol-5-one], on α1β2γ2 GABAA receptor, the 50% effective concentration (EC50) came out at 14 nM. Further, in data set [1] (iv, 1 mg/kg i.v.), the clearance is 130 mL/min/kg, the half-life is 0.3 h and the Vd is 2.59 L/kg. Besides, the AUC(0-t) in data set [1] (setting [2]) came out at 118 ng·h/mL. In data set [1] (po, 5 mg/kg p.o.), the Cmax came to 213 ng/mL and the Tmax is 30 min. For the same compound, the bioavailability in data set [1] (po) amounted to 34.2%. Also, the AUC(0-t) in data set [1] (setting [3]) turned out to be 203 ng·h/mL.
As to `COc1cccc(-n2nnn(CC(=O)[C@H]3CC[C@H]4[C@@H]5CC[C@@H]6C[C@](C)(O)CC[C@@H]6[C@H]5CC[C@]34C)c2=O)c1` [Example 16, 1-(2-((3R,5R,8R,9R,10S,13S,14S,17S)-3-hydroxy-3,13-dimethylhexadecahydro-1H-cyclopenta[a]phenanthren-17-yl)-2-oxoethyl)-4-(3-methoxyphenyl)-1,4-dihydro-5H-tetrazol-5-one], at α1β2γ2 GABAA receptor, the EC50 is 5.4 nM and the maximal effect (Emax) was found to be 578%. Also, in data set [1] (iv, 1 mg/kg i.v.), the clearance was 33 mL/min/kg, the half-life is 0.9 h and the Vd was 1.54 L/kg. Also, the AUC(0-t) in data set [1] (setting [2]) is 500 ng·h/mL. Also, in data set [1] (po, 5 mg/kg p.o.), the concentration peaked (Cmax) at 109 ng/mL and the Tmax is 30 min. Moreover, the bioavailability in data set [1] (po) worked out at 15.1%. In addition, the AUC(0-t) in data set [1] (setting [3]) is 330 ng·h/mL.
